We go through one compound from patent US20120270237A9, “METHODS FOR THE IDENTIFICATION OF KINASE INTERACTING MOLECULES AND FOR THE PURIFICATION OF KINASE PROTEINS” (Cellzone AG, priority 2009, published 2012).

Assay [1] concerns the target MAP2K1 (Homo sapiens, UniProt Q02750). Description: Kinobeads competition binding, HL60 cell lysate. On the set-up: Identified kinases with CZC31326 from HL60 lysate; endogenous in cells; host or cells: HL60. As to conditions: 10 μM free compound. As to the method: (§1) To one aliquot of cell lysate 10 μM of the free compound (FIG. 3, CZC31326) was added and allowed to bind to proteins in the lysate. Then the affinity matrix with the immobilized compound (Example 1) was added to capture proteins that were not interacting with the previously added free compound. Beads were separated from the lysate and bead bound proteins were eluted in SDS sample buffer and subsequently separated by SDS-Polyacrylamide gel electrophoresis (FIG. 4). Suitable gel bands were cut out and subjected to in-gel proteolytic digestion with trypsin. The second lysate aliquot was processed identically, however no free compound was added (DMSO solvent control). Peptides originating from samples 1 and 2 were labeled with iTRAQ reagents (iTRAQ 114 and iTRAQ 117) and the combined samples were analyzed with a nano-flow liquid chromatography system coupled online to a tandem mass spectrometer (LC-MS/MS) experiment followed by iTRAQ reporter ion quantification in the MS/MS spectra (Ross et al., 2004. Mol. Cell. Proteomics 3(12):1154-1169). Further experimental protocols can be found in WO2006/134056 and a previous publication (Bantscheff et al., 2007. Nature Biotechnology 25, 1035-1044). Sepharose-beads with the immobilized compound (100 μl beads per pull-down experiment) were equilibrated in lysis buffer and incubated with a cell lysate sample containing 50 mg of protein on an end-over-end shaker (Roto Shake Genie, Scientific Industries Inc.) for 2 hours at 4° C. Beads were collected, transferred to Mobicol-columns (MoBiTech 10055) and washed with 10 ml lysis buffer containing 0.4% NP40 detergent, followed by 5 ml lysis buffer containing 0.2% detergent. To elute bound proteins, 60 μl 2×SDS sample buffer was added to the column. The column was incubated for 30 minutes at 50° C. and the eluate was transferred to a siliconized microfuge tube by centrifugation. Proteins were then alkylated with 108 mM iodoacetamid. Proteins were then separated by SDS-Polyacrylamide electrophoresis (SDS-PAGE). The peptide extracts of samples treated with 10 μM of free compound (CZC31326) and the solvent control (0.5% DMSO) were treated with different variants of the isobaric tagging reagent (iTRAQ Reagents Multiplex Kit, part number 4352135, Applied Biosystems, Foster City, Calif., USA). The iTRAQ reagents are a set of multiplexed, amine-specific, stable isotope reagents that can label peptides on amino groups in up to four different biological samples enabling simultaneous identification and quantitation of peptides. […] Relative protein quantitation was performed using peak areas of iTRAQ reporter ion signals essentially as described in an earlier publication (Bantscheff et al., 2007. Nature Biotechnology 25, 1035-1044).

The target in assay [2] is LOK (Homo sapiens, UniProt O94804). Description: Kinobeads competition binding, HL60 cell lysate. On the set-up: Identified kinases with CZC31326 from HL60 lysate; endogenous in cells; host or cells: HL60. The following applies: 10 μM free compound. As to the method:
as §1

For assay [3], the target named is MAP2K3 (Homo sapiens, UniProt P46734). Nature of the assay: Kinobeads competition binding, HL60 cell lysate. On the set-up: Identified kinases with CZC31326 from HL60 lysate; endogenous in cells; host or cells: HL60. As to conditions: 10 μM free compound. As to the method:
as §1

Assay [4] deals with LRRK2 (Homo sapiens, UniProt Q5S007). Nature of the assay: Kinobeads competition binding, HL60 cell lysate. The following applies: 10 μM free compound. On the set-up: Identified kinases with CZC31326 from HL60 lysate; endogenous in cells; host or cells: HL60. As to the method: as §1
Chain of LRRK2 (Q5S007 whole entry): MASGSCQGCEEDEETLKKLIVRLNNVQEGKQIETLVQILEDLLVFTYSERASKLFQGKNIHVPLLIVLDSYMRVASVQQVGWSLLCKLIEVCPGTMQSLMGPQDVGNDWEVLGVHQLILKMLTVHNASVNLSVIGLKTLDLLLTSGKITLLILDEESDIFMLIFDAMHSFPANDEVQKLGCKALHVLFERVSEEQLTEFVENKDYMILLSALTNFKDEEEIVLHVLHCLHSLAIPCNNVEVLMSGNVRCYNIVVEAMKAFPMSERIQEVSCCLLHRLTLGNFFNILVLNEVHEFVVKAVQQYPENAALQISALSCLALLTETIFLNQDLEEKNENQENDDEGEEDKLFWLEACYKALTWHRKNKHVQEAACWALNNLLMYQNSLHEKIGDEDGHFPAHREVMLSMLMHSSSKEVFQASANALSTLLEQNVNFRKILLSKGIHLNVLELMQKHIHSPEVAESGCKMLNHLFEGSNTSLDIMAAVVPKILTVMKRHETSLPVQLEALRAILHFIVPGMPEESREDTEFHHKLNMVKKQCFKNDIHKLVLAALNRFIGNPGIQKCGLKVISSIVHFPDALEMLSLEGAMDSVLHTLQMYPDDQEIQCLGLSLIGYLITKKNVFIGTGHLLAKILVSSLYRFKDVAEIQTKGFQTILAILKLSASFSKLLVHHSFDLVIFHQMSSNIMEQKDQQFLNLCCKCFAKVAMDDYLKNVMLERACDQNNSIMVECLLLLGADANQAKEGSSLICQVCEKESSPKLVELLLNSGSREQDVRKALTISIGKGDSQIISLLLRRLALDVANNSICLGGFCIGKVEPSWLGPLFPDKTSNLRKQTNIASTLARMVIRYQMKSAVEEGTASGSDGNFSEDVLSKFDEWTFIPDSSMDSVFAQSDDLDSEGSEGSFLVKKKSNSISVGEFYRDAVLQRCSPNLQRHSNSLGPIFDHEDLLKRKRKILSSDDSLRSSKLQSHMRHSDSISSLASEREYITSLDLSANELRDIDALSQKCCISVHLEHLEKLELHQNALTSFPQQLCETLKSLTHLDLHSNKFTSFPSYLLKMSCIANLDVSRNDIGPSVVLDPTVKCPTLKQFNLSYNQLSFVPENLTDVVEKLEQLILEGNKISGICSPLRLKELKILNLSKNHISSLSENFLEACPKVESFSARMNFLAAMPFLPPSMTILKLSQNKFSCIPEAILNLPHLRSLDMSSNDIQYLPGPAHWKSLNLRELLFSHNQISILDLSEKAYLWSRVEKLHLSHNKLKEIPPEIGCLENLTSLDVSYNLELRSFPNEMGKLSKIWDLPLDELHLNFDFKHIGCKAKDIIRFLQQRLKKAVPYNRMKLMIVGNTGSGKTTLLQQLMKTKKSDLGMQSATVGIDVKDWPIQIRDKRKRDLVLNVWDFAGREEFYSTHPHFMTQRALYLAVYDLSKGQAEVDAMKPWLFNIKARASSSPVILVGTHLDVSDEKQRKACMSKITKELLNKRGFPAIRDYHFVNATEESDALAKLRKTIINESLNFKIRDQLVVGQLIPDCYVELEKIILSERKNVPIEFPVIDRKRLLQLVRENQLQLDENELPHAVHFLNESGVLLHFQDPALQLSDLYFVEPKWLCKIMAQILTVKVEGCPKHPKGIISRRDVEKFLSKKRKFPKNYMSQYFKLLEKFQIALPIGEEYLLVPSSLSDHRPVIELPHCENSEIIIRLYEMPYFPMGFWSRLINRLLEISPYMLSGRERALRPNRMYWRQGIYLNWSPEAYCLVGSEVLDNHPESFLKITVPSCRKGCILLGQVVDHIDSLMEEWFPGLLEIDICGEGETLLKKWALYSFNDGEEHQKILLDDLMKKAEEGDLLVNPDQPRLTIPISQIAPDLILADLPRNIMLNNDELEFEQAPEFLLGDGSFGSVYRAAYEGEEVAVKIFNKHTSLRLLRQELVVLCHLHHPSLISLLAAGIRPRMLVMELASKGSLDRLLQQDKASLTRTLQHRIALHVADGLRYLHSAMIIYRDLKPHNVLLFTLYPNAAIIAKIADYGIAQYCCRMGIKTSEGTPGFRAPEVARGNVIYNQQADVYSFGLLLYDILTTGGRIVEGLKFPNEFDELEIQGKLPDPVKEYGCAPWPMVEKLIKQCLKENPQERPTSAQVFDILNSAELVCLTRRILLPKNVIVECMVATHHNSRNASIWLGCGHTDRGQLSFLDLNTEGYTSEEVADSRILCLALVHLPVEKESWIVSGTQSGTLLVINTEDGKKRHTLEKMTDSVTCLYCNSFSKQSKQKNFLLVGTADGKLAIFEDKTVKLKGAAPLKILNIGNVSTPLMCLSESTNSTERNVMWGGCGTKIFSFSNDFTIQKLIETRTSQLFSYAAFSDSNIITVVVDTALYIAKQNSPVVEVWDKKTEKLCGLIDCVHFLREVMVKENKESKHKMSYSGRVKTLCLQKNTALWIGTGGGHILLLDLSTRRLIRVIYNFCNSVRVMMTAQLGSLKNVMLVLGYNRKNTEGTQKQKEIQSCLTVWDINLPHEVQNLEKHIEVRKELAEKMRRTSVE
Assay [5] concerns the target MARK2 (Homo sapiens, UniProt Q7KZI7). Description: Kinobeads competition binding, HL60 cell lysate. On the set-up: endogenous in cells; host or cells: HL60 cell lysate. The following applies: 10 μM free compound. As to the method: as §1, with “Beads were collected, transferred to Mobicol-columns (MoBiTech 10055) and washed with 10 ml lysis buffer containing 0.4% NP40 detergent, followed by 5 ml lysis buffer containing 0.2% detergent. To elute bound proteins, 60 μl 2×SDS sample buffer was added to the column. The column was incubated for 30 minutes at 50° C. and the eluate was transferred to a siliconized microfuge tube by centrifugation. Proteins were then alkylated with 108 mM iodoacetamid. Proteins were then separated by SDS-Polyacrylamide electrophoresis (SDS-PAGE). The peptide extracts of samples treated with 10 μM of free compound (CZC31326) and the solvent control (0.5% DMSO) were treated with different variants of the isobaric tagging reagent (iTRAQ Reagents Multiplex Kit, part number 4352135, Applied Biosystems, Foster City, Calif., USA).” left out

In assay [6] the target is T1, NEK7 (Homo sapiens, UniProt Q8TDX7).
T1 construct: capturing and identification of kinases from L-363 cell lysate; endogenous in cells; host or cells: L-363 (DSMZ ACC49), treated with MG132 before harvest
T1 sequence (Q8TDX7 whole entry): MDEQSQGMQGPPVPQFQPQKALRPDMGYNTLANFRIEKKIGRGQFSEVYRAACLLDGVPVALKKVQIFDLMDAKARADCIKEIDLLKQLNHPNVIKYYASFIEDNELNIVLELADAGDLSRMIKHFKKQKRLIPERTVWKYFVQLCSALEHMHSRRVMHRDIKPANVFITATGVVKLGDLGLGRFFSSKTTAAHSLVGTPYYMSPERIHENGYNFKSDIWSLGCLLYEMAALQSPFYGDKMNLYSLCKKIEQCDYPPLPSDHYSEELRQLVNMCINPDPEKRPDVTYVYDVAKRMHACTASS
Description: Kinobeads competition binding, L-363 cell lysate. As to conditions: 10 μM free compound, L-363 lysate. The method, then:
(§2) To one aliquot of cell lysate 10 μM of the free compound (FIG. 3, CZC31326) was added and allowed to bind to proteins in the lysate. Then the affinity matrix with the immobilized compound was added to capture proteins that were not interacting with the previously added free compound. Beads were separated from the lysate and bead bound proteins were eluted in SDS sample buffer and subsequently separated by SDS-Polyacrylamide gel electrophoresis (FIG. 8). Suitable gel bands were cut out and subjected to in-gel proteolytic digestion with trypsin. The second lysate aliquot was processed identically, however no free compound was added (DMSO solvent control). Peptides originating from samples 1 and 2 were labeled with iTRAQ reagents (iTRAQ 114 and iTRAQ 117) and the combined samples were analyzed with a nano-flow liquid chromatography system coupled online to a tandem mass spectrometer (LC-MS/MS) experiment followed by iTRAQ reporter ion quantification in the MS/MS spectra as described in Example 2.
(§3) For this experiment the human plasma cell leukaemia line L-363 was used (German Collection of Microorganisms and Cell Cultures, DSMZ number ACC49, Braunschweig, Germany). Cells were treated for three hours with 20 μM of the proteasome inhibitor MG132 (Z-Leu-Leu-Leu-al, Sigma C2211) prior to cell harvesting.

For assay [7], the target named is T2, NuaK2 (Homo sapiens, UniProt Q9H093).
T2 construct: capturing and identification of kinases from L-363 cell lysate; endogenous in cells; host or cells: L-363 (DSMZ ACC49), treated with MG132 before harvest
T2 sequence (Q9H093 whole entry): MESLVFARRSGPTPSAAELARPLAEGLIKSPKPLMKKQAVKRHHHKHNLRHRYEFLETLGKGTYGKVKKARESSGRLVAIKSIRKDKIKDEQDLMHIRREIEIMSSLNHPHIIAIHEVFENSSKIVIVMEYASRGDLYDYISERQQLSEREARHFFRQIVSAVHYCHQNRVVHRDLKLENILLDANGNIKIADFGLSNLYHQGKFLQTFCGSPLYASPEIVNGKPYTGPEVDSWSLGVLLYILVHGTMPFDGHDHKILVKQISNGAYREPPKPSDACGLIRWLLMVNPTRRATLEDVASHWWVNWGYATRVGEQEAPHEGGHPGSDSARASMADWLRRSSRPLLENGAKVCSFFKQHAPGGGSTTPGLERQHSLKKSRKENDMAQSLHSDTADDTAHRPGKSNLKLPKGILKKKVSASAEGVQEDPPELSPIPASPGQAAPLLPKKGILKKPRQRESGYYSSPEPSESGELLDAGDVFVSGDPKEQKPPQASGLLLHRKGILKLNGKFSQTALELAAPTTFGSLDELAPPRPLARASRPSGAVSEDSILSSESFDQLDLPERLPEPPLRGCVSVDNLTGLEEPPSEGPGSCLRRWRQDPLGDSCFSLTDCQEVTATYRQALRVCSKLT
Nature of the assay: Kinobeads competition binding, L-363 cell lysate. The following applies: 10 μM free compound, L-363 lysate. The method, then:
as §2, §3

Chain of MAP2K3 (P46734 whole entry): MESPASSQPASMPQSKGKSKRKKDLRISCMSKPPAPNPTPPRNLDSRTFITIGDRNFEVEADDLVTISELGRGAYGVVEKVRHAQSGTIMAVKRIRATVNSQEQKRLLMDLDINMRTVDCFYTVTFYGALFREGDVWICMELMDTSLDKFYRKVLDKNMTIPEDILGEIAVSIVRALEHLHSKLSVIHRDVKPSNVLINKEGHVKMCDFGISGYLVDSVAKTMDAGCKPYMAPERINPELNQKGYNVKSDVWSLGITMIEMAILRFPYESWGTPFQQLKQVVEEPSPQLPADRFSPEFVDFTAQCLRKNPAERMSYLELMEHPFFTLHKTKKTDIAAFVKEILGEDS
Chain of LOK (O94804 whole entry): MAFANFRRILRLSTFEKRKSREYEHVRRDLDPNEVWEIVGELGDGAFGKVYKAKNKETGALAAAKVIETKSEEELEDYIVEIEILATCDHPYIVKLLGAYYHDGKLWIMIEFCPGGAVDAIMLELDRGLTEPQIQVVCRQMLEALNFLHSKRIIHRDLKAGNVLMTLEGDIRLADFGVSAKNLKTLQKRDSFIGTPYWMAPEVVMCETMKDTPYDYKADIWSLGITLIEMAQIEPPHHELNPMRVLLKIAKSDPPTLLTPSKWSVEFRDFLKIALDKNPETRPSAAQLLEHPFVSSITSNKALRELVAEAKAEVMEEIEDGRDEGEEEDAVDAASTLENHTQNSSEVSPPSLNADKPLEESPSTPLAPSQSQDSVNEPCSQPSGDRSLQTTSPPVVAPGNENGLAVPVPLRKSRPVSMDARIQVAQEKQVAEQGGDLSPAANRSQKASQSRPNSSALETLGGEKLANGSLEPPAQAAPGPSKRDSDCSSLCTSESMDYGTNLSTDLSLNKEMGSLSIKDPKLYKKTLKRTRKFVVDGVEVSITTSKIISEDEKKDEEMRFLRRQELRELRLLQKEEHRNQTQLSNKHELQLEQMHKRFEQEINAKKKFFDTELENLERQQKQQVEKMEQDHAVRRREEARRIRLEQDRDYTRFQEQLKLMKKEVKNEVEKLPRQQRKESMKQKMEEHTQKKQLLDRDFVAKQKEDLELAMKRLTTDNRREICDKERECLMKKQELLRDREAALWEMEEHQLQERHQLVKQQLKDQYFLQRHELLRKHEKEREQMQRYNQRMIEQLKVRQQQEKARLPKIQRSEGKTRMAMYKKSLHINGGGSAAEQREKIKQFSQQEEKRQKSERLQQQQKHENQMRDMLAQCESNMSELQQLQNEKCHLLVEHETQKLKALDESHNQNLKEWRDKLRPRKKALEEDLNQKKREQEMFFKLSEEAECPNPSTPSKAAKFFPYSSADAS

What is called inhibition is the change of the read-out against control, counted positive when it falls. Turning to `CS(=O)(=O)Nc1ccccc1Nc1nc(Nc2cccc(OCCN)c2)ncc1Cl` [CZC31326, N-(2-(2-(3-(2-aminoethoxy)phenylamino)-5-chloropyrimidin-4-ylamino)phenyl)methanesulfonamide], the inhibition at 10 µM in assay [1] came out at 85.2%; in assay [3] it was 90.9%; in assay [4], 71.7%; in assay [5] it was 97.1%; in assay [6], 93.9%. Also, the Competition % stood at 95.3% in assay [2] and 96.7% in assay [7].
